Measurements from patent publication US3983156A, “Substituted ω-nitroacetophenones” (Beecham Group Limited, priority 1973, dated 1976).

System: rat PCA response
Experiment: Rat Passive Cutaneous Anaphylaxis (PCA) test
Type: in vivo, rat (Wistar)
Conditions: sc, subcutaneous
Procedure: Some of the ω-nitroacetophenones prepared in the preceding Examples were submitted for biological testing. The test system was the Rat Passive Cutaneous Anaphylaxis (PCA) test described below in (ii).
i. Serum containing heat labile homocytotropic antibody was raised in rats by a method similar to that used by Mota. (I. Mota Immunology 1964, 7, 681).
Male Wistar rats of 250-300 g, were injected intraperitoneally with 0.5 ml of Bordatella pertussis vaccine (containing 4 × 10^10 dead organism per ml) and subcutaneously with 0.5 ml of an emulsion of 100 mg. of ovalbumin in 2 ml of saline and 3 ml of incomplete Freunds' adjuvant. Rats were bled by cardiac puncture on day 18, the blood was pooled and separated and serum stored at -20° and thawed only once before use.
ii. The P.C.A. test was similar to that described by Ovary and Bier (A. Ovary and O. E. Bier, Prod. Soc. Exp. Biol. Med. 1952, 81, 584) and Goose and Blair (J. Goose and AM.J. N Blair, Immunology 1969, 16, 769)
0.1 ml of each of six twofold serial dilutions of the serum in 0.9% saline were injected intradermally into separate sites on the shaved dorsal surface of 250-350 g Wistar rats. 72 hours later the animals were challlenged by i.v. injection of 0.3 ml of 1% ovalbumin mixed with 0.1 ml of a 5% solution of pontamine sky blue dye both in isotonic saline buffered with pH. 7.2 Sorenson buffer (P.B.S.). The rats were killed after 20 minutes and the diameter of the blue wheals at the antibody injection sites were measured. The starting dilution of the serum was adjusted so that there was no response, after challenge, at the site of injection of the highest dilution and a maximum response at the two or three lowest dilutions. Typically, six twofold serial dilutions of the serum from 1/4 to 1/128 were used.
Compounds were tested for their ability to reduce the diameter of the wheals at the injection sites of dilutions of antibody which on all the controls have less than maximum response. Amounts of the compounds were administered to rats by subcutaneous injection, into the nuchal region, of a solution of the compound in P.B.S. or as a suspension in 1% methyl cellulose, each amount to a test group of six animals at a specified time prior to intravenous challenge with ovalbumin. THe diameters of the blue wheals which developed on the tests group of aimals were compared with those on a control group of six animals treated in the same way as the test group, but which; had received an equivalent subcutaneous injection of the carrier fluid not containing the same volume of the compound under test.
% Inhibition of P.C.A. = 100 (1 - a/b)
a = The mean of the sum of the diameters of the wheals produced in the test group of animals at those antibody sites where all the control group of animals gave less than maximum response.
b = The mean of the sum of diameters of the wheals produced in the control group of amimals at those antibody sites where all the animals in the group gave less than maximum response.
The preferred method of administration was a solution of the test compound dissolved in pH 7.2 buffer and neutralised with sodium bicarbonate. For those compounds having insoluble sodium salts, the salts were isolated by reaction of the free nitro compound with 2.5N sodium hydroxide and the filtered sodium salt washed free of alkali with water. The dried salts were then administered as a suspension in 1% methyl cellulose.

SMILES | inhibition in vivo at 25 mg/kg (0 mins prior to challenge) [%] | inhibition in vivo at 25 mg/kg (30 mins prior to challenge) [%] | inhibition in vivo at 100 mg/kg (0 mins prior to challenge) [%] | inhibition in vivo at 100 mg/kg (30 mins prior to challenge) [%] | inhibition in vivo at 25 mg/kg (60 mins prior to challenge) [%] | inhibition in vivo at 100 mg/kg (60 mins prior to challenge) [%] | inhibition in vivo at 84 mg/kg (0 mins prior to challenge) [%] | inhibition in vivo at 84 mg/kg (30 mins prior to challenge) [%]
Cc1cc(C(=O)C[N+](=O)[O-])c(C(=O)OC(C)C)cc1C [Example 6, 2-Isopropoxycarbonyl-4,5-dimethyl-ω-nitroacetophenone] | 16 | 20 | 30 | 41 |  |  |  | 
COC(=O)c1ccccc1C(=O)C[N+](=O)[O-] [Example 1, 2-methoxycarbonyl-ω-nitroacetophenone] | 0 |  | 12 |  | 32 | 23 |  | 
O=C(C[N+](=O)[O-])c1cccc(-c2ccccc2)c1C(=O)O [Example 10, ω-nitro-3-phenylacetophenone-2-carboxylic acid] | 2 | 11 |  |  |  |  | 23 | 21
O=C(O)c1ccccc1C(=O)C[N+](=O)[O-] [Example 8, ω-nitroacetophenone-2-carboxylic acid] | 12 | 18 | 48 | 37 |  |  |  | 
CCOC(=O)c1cc(C)c(C)cc1C(=O)C[N+](=O)[O-] [Example 4, 2-ethoxycarbonyl-4,5-dimethyl-ω-nitroacetophenone] | 12 |  | 16 |  | 53 | 42 |  | 
CCOC(=O)c1ccccc1C(=O)C[N+](=O)[O-] [Example 2, 2-ethoxycarbonyl-ω-nitroacetophenone] | 22 |  | 34 |  | 57 | 58 |  | 
Cc1cc(C(=O)O)c(C(=O)C[N+](=O)[O-])cc1C [Example 9, 4,5-dimethyl-ω-nitroacetophenone-2-carboxylic acid] | 33 |  | 57 |  | 13 | 32 |  | 
COC(=O)c1cc(C)c(C)cc1C(=O)C[N+](=O)[O-] [Example 3, 2-methoxycarbonyl-4,5-dimethyl-ω-nitroacetophenone] | 22 |  | 34 |  | 51 | 58 |  | 
COC(=O)c1cccc(-c2ccccc2)c1C(=O)C[N+](=O)[O-] [Example 7] | 8 |  | 14 |  | -13 | -2 |  | 
CCCOC(=O)c1cc(C)c(C)cc1C(=O)C[N+](=O)[O-] [Example 5, 2-^n propoxycarbonyl-4,5-dimethyl-ω-nitroacetophenone] | 7 |  | 11 |  | 44 | 54 |  | 
